Values after ≈ are worked out from the molar mass of the structure shown. Like-named read-outs stand apart in the source and are kept apart here.
Legend:
Assay in all cases: broth microdilution assay
[1] = system: Candida pseudotroplicalis (MY2099); assay type: cell-based, Candida pseudotropicalis; details: for MIC: complete clearing
Protocol: (§1) In the microbroth dilution assay, the selected microorganisms were grown by streaking a yeast culture on Sabouraud Dextrose agar (SDA) and incubating for 24-48 hr at 35°-37° C. Thereafter, 3-5 characteristic colonies were selected and transferred to CM-YNB+0.1% Dextrose Agar plates (1% Bactopeptone, 0.5% yeast extract, 6.7 g/L yeast nitrogen base with amino acids, 1 μM adenine, 0.1% dextrose, and 1.5% Bacto agar) and incubated overnight at 35°-37° C. From the regrowth, 3 to 5 colonies were selected and suspended in 5 ml of CM-YNBD media (same as above, only without agar) and incubated for 4-6 hr at 35°-37° C. shaking at 225 rpm. The broth cultures were adjusted spectrophotometrically to 86% transmission resulting in a concentration of 1-5×10^6 cfu/ml which was further diluted 1:100 (1:50 for Aspergillus) in CM-YNBD to obtain a concentration of 1-5 ×10^4 cfu/ml to use as inocula.
(§2) The test compounds were prepared as a stock solution of 512 μg/ml in 10% DMSO and 75 μl of said solution delivered to a well in column one of each 96 well, U-bottomed microtiter plate that already contained 75 μl of CM-YNBD media per well. In the first run of the assay, Compound I was then serially diluted two fold from column 1 to column 12 to yield concentrations from 256 μg/ml to 0,125 μg/ml.
as §2, with “Amphotericin B, the control compound, was” for “The test compounds were”, “The compound” for “In the first run of the assay, Compound I”
(§3) The plates containing the diluted compounds were then inoculated with 75 μl/well of the appropriate microorganism resulting in a further 2-fold dilution such that the final concentration of test compounds ranged between 128 and 0.06 μg/ml. The plates were incubated for 48 hours at 35°-37° C. with MIC (minimum inhibitory concentration) determinations carried out after 24 hours of incubation. Growth and sterility controls for each organism and sterility checks for the compounds also were carried out. In three cases, a modified MIC endpoint (MIC2) was used.
After recording MICs at 24 hours, samples are withdrawn to determine the MFC. The microtiter plates were shaken gently to resuspend the cells and […] sample was transferred from each well of the 96 well plate to the surface of a single reservoir inoculum plate containing 15 ml of SDA. The inoculated SDA and corresponding microtiter plates were incubated for 24 hours at 35°-37° C. For Cryptococcus neoformans, the MFC plates were inoculated after reading the 48 hour MICs and incubated for 48 hours before reading the MFC. […]

[2] = system: Aspergillus fumigatus (MF5668); assay type: cell-based; details: for MIC: complete clearing
Protocol: as §1, §2
as §2, with “Amphotericin B, the control compound, was” for “The test compounds were”, “The compound” for “In the first run of the assay, Compound I”
as §3
(§4) No MFC values are indicated for Aspergillus fumigatus since colony counts are unreliable with filamentous species. Instead, a Minimum Effective Concentration (MEC) is reported for A. fumigatus. The MEC is defined as the lowest concentration of drug which effects a severe morphological change in the cells. The MEC is scored […] by direct observation of the microtiter plate wells after 24 hours and reflects microscopic alterations in cell morphology (Kurtz et al. AAC:38:1480-1489[94]).
(§5) In this run, Compound I was titrated from 64-0.03 μg/ml and Compound II was titrated from 128-0.06 μg/ml.

[3] = system: Aspergillus fumigatus (MF4839); assay type: cell-based; details: for MIC: complete clearing
Protocol: as §1, §2
as §2, with “Amphotericin B, the control compound, was” for “The test compounds were”, “The compound” for “In the first run of the assay, Compound I”
as §3, §4, §5

[4] = system: Saccharomyces cerevisiae (MY2140); assay type: cell-based; details: for MIC: complete clearing
Protocol: as §1, §2
as §2, with “Amphotericin B, the control compound, was” for “The test compounds were”, “The compound” for “In the first run of the assay, Compound I”
as §3
(§6) After recording MICs at 24 hours, samples are withdrawn to determine the MFC. The microtiter plates were shaken gently to resuspend the cells and […] sample was transferred from each well of the 96 well plate to the surface of a single reservoir inoculum plate containing 15 ml of SDA. The inoculated SDA and corresponding microtiter plates were incubated for 24 hours at 35°-37° C. For Cryptococcus neoformans, the MFC plates were inoculated after reading the 48 hour MICs and incubated for 48 hours before reading the MFC. The MFC is the lowest concentration of compound at which either no growth or growth of ≤3 colonies occurs.
as §5

[5] = system: Candida albicans (CLY539); assay type: cell-based; details: for MIC: * = MIC2, prominent decrease in turbidity
Protocol: as §1, §2
as §2, with “Amphotericin B, the control compound, was” for “The test compounds were”, “The compound” for “In the first run of the assay, Compound I”
as §3, §6, §5

[6] = system: Candida glabrata (MY1381); assay type: cell-based; details: Nakaseomyces glabratus; for MIC: complete clearing
Protocol: as §1, §2
as §2, with “Amphotericin B, the control compound, was” for “The test compounds were”, “The compound” for “In the first run of the assay, Compound I”
as §3, §6, §5

[7] = system: Candida albicans (MY1055); assay type: cell-based
Protocol: as §1, §2
as §2, with “Amphotericin B, the control compound, was” for “The test compounds were”, “The compound” for “In the first run of the assay, Compound I”
as §3, §6, §5

[8] = system: Candida tropicalis (MY1012); assay type: cell-based; details: for MIC: complete clearing
Protocol: as §1, §2
as §2, with “Amphotericin B, the control compound, was” for “The test compounds were”, “The compound” for “In the first run of the assay, Compound I”
as §3, §6, §5

[9] = system: Saccharomyces cerevisiae (MY2141); assay type: cell-based; details: for MIC: complete clearing
Protocol: as §1, §2
as §2, with “Amphotericin B, the control compound, was” for “The test compounds were”, “The compound” for “In the first run of the assay, Compound I”
as §3, §6, §5

[10] = system: Candida tropicalis (MY1124); assay type: cell-based
Protocol: as §1, §2
as §2, with “Amphotericin B, the control compound, was” for “The test compounds were”, “The compound” for “In the first run of the assay, Compound I”
as §3, §6, §5

Candida albicans (CA2) = assay type: cell-based; details: comparative run, I 64-0.03, II 128-0.06 μg/ml, complete clearing
Protocol: as §1, §2
as §2, with “Amphotericin B, the control compound, was” for “The test compounds were”, “The compound” for “In the first run of the assay, Compound I”
as §3, §6, §5

[11] = system: Candida parapsilosis (MY1010); assay type: cell-based; details: Lodderomyces parapsilosis
Protocol: as §1, §2
as §2, with “Amphotericin B, the control compound, was” for “The test compounds were”, “The compound” for “In the first run of the assay, Compound I”
as §3, §6, §5

[12] = system: Candida guillermondii (MY1019); assay type: cell-based; details: for MIC: complete clearing
Protocol: as §1, §2
as §2, with “Amphotericin B, the control compound, was” for “The test compounds were”, “The compound” for “In the first run of the assay, Compound I”
as §3, §6, §5

[13] = system: Cryptococcus neoformans (MY2062); assay type: cell-based; details: complete clearing
Protocol: as §1, §2
as §2, with “Amphotericin B, the control compound, was” for “The test compounds were”, “The compound” for “In the first run of the assay, Compound I”
as §3, §6, §5

[14] = comparative run, I 64-0.03, II 128-0.06 μg/ml
[15] = first run, 128-0.06 μg/ml, 24 h
[16] = first run, 128-0.06 μg/ml, no growth or ≤3 colonies
[17] = first run, lowest concentration effecting severe morphological change, 24 h, read-out: MEC
[18] = comparative run, I 64-0.03 μg/ml, complete clearing, read-out: MIC
[19] = first run, 128-0.06 μg/ml, 24 h, * = MIC2, prominent decrease in turbidity, read-out: MIC2
[20] = comparative run, II 128-0.06 μg/ml, * = MIC2, prominent decrease in turbidity, read-out: MIC2

Which MIC [1, 14] does the source give for `C=C(CCC(C)C1CC(O)C2(C(=O)O)C3=C(CCC12C)C1(C)CCC(OC2OC(CO)C(OC)C(O)C2O)C(=C)C1CC3)C(C)C` (stereo not shown) [Compound I] here?
Its MIC is under 0.03 µg/mL.

And the MIC [1, 15]?
The MIC was under 0.06 µg/mL.

And the MFC [1, 16]?
The MFC was under 0.06 µg/mL.

What about the MIC [2, 14] of the same compound?
The MIC was over 64 µg/mL.

What about the MIC [2, 15] of the same compound?
The MIC was over 128 µg/mL.

And the minimal effective concentration [2, 17]?
Its minimal effective concentration is under 0.06 µg/mL.

And the MIC [3, 14]?
Its MIC is over 64 µg/mL.

What about the MIC [3, 15] of the same compound?
Its MIC is over 128 µg/mL.

And the minimal effective concentration [3, 17]?
The minimal effective concentration was 0.25 µg/mL.

What about the MIC [4, 14] of the same compound?
The MIC was 4 µg/mL (≈ 6.18 µM).

And the MIC [4, 15]?
The MIC was 8 µg/mL (≈ 12.4 µM).

What about the MFC [4, 16] of the same compound?
The MFC was 4 µg/mL (≈ 6.18 µM).

What about the MIC [5, 14] of the same compound?
The MIC was under 0.03 µg/mL.

What about the MIC [5, 15] of the same compound?
The MIC was 0.5 µg/mL (≈ 0.773 µM).

What about the MFC [5, 16] of the same compound?
The MFC was over 128 µg/mL.

What about the MIC [6, 15] of the same compound?
The MIC was under 0.06 µg/mL.

And the MFC [6, 16]?
The MFC was under 0.06 µg/mL.

And the MIC [7, 18]?
The MIC was under 0.03 µg/mL.

What about the MIC [7, 19] of the same compound?
The MIC was 2 µg/mL (≈ 3.09 µM).

What about the MFC [7, 16] of the same compound?
Its MFC is under 0.06 µg/mL.

And the MIC [8, 14]?
The MIC was 8 µg/mL (≈ 12.4 µM).

What about the MIC [8, 15] of the same compound?
The MIC was 8 µg/mL (≈ 12.4 µM).

What about the MFC [8, 16] of the same compound?
Its MFC is 8 µg/mL (≈ 12.4 µM).

What about the MIC [9, 14] of the same compound?
Its MIC is under 0.03 µg/mL.

And the MIC [9, 15]?
Its MIC is under 0.06 µg/mL.

And the MFC [9, 16]?
The MFC was under 0.06 µg/mL.

What about the MIC ([10]; comparative run, I 64-0.03 μg/ml, * = MIC2, prominent decrease in turbidity, read-out: MIC2) of the same compound?
Its MIC is under 0.03 µg/mL.

And the MIC [10, 19]?
Its MIC is 0.25 µg/mL (≈ 0.386 µM).

What about the MFC [10, 16] of the same compound?
The MFC was 0.125 µg/mL (≈ 0.193 µM).

What about the MIC (Candida albicans (CA2)) of the same compound?
The MIC was over 64 µg/mL.

What about the MIC [11, 18] of the same compound?
Its MIC is under 0.03 µg/mL.

And the MIC ([11]; first run, 128-0.06 μg/ml, 24 h, complete clearing, read-out: MIC)?
Its MIC is under 0.06 µg/mL.

And the MFC [11, 16]?
Its MFC is under 0.06 µg/mL.

What about the MIC [12, 14] of the same compound?
Its MIC is over 64 µg/mL.

And the MIC [12, 15]?
Its MIC is over 128 µg/mL.

And the MFC [12, 16]?
The MFC was over 128 µg/mL.

And the MIC [13, 14]?
Its MIC is over 64 µg/mL.

And the MIC ([13]; first run, 128-0.06 μg/ml)?
Its MIC is 32 µg/mL (≈ 49.5 µM).

Which MIC [1, 14] does the source give for `C=C(CCC(C)C1CCC2(C(=O)O)C3=C(CCC12C)C1(C)CCC(OC2OC(CO)C(O)C(O)C2O)C(=C)C1CC3)C(C)C` (stereo not shown) [Compound II] here?
The MIC was under 0.06 µg/mL.

And the MIC [2, 14]?
The MIC was over 128 µg/mL.

What about the MIC [3, 14] of the same compound?
Its MIC is over 128 µg/mL.

What about the MIC [4, 14] of the same compound?
The MIC was 1 µg/mL (≈ 1.62 µM).

And the MIC [5, 14]?
Its MIC is over 128 µg/mL.

What about the MIC [6, 14] of the same compound?
The MIC was 0.5 µg/mL (≈ 0.811 µM).

And the MIC [7, 20]?
Its MIC is 1 µg/mL (≈ 1.62 µM).

And the MIC [8, 14]?
The MIC was 8 µg/mL (≈ 13 µM).

And the MIC [9, 14]?
The MIC was under 0.06 µg/mL.

And the MIC ([10]; comparative run, II 128-0.06 μg/ml, complete clearing, read-out: MIC)?
The MIC was 0.5 µg/mL (≈ 0.811 µM).

And the MIC (Candida albicans (CA2))?
The MIC was over 128 µg/mL.

What about the MIC [11, 20] of the same compound?
Its MIC is 2 µg/mL (≈ 3.24 µM).

What about the MIC [12, 14] of the same compound?
The MIC was over 128 µg/mL.

What about the MIC [13, 14] of the same compound?
The MIC was over 128 µg/mL.
